Results: US20250026734A1 (priority 2021, published 2025)

Key:
SARS-CoV-2 (WK-521) = test: microbe, parasite or virus in culture; assay type: cell-based; conditions: Severe acute respiratory syndrome coronavirus 2, HEK-293T, 72 h; for IC50: read-out: IC50 (concentration of agent which reduces viral production and replication by 50%); for IC90: read-out: IC90 (concentration of agent which reduces viral production and replication by 90%)
in vitro [1] = conditions: human
[2] = tested on: SARS-CoV (SARS-CoV-HKU-39849); test: microbe, parasite or virus in culture; assay type: cell-based; conditions: Severe acute respiratory syndrome coronavirus, HEK-293T
[3] = tested on: MERS-CoV (MERS-CoV-EMC/2012); test: microbe, parasite or virus in culture; assay type: cell-based; conditions: Middle East respiratory syndrome-related coronavirus, HEK-293T
in vitro [4] = conditions: African green monkey

For `CCCCn1c(=O)c2ccc(NCC(N)=O)cc2c2cc(C(O)(C(F)(F)F)C(F)(F)F)ccc21` [NR-96], the IC50 (SARS-CoV-2 (WK-521)) was 0.68 µM, the IC90 (SARS-CoV-2 (WK-521)) was 4 µM and the CC50 (in vitro [1]) was > 20 µM.

With `CCCCn1c(=O)c2ccc(NC(=O)C(C)N)cc2c2cc(C(O)(C(F)(F)F)C(F)(F)F)ccc21` (centres unmarked) [NR-28] the IC50 (SARS-CoV-2 (WK-521)) was 0.12 µM, the IC90 (SARS-CoV-2 (WK-521)) was 1.68 µM and the CC50 (in vitro [1]) was 11.8 µM.

`CCCCn1c(=O)c2ccc(NC(=O)[C@H](N)CO)cc2c2cc(C(O)(C(F)(F)F)C(F)(F)F)ccc21` [NR-47] gave an IC50 (SARS-CoV-2 (WK-521)) of 0.7 µM, an IC90 (SARS-CoV-2 (WK-521)) of 3.3 µM and a CC50 (in vitro [1]) of 11.7 µM.

`CCCCn1c(=O)c2cc(NC=O)ccc2c2cc(C(O)(C(F)(F)F)C(F)(F)F)ccc21` [NR-86] gave an IC50 (SARS-CoV-2 (WK-521)) of 0.08 µM, an IC90 (SARS-CoV-2 (WK-521)) of 3.07 µM and a CC50 (in vitro [1]) of 16.7 µM.

In the case of `CCCCn1c(=O)c2ccc(NC(=O)[C@H]3CC(O)CN3)cc2c2cc(C(O)(C(F)(F)F)C(F)(F)F)ccc21` (some centres unmarked) [NR-30], the IC50 (SARS-CoV-2 (WK-521)) is reported as 0.059 µM, the IC90 (SARS-CoV-2 (WK-521)) is reported as 1.84 µM and the IC50 [2] is reported as 6.95 µM. The IC90 [2] was 19.4 µM, the IC50 [3] was 12.5 µM and the IC90 [3] was 21.8 µM. The CC50 (in vitro [1]) was 13.6 µM.

With `CCCCn1c(=O)c2ccc(N)cc2c2cc(C(O)(C(F)(F)F)C(F)(F)F)ccc21` [NR-31-5] the IC50 (SARS-CoV-2 (WK-521)) was 0.546 µM, the IC90 (SARS-CoV-2 (WK-521)) was 2.63 µM and the CC50 (in vitro [1]) was > 20 µM.

For `CC(C)Cn1c(=O)c2ccc(NCCO)cc2c2cc(C(O)(C(F)(F)F)C(F)(F)F)ccc21` [NR-91], the IC50 (SARS-CoV-2 (WK-521)) was 0.51 µM, the IC90 (SARS-CoV-2 (WK-521)) was 4 µM and the CC50 (in vitro [1]) was > 20 µM.

In the case of `CCCCn1c(=O)c2ccc(NC(C)=O)cc2c2cc(C(O)(C(F)(F)F)C(F)(F)F)ccc21` [TK-04], the IC50 (SARS-CoV-2 (WK-521)) is reported as 0.576 µM, the IC90 (SARS-CoV-2 (WK-521)) is reported as 5.97 µM and the CC50 (in vitro [1]) is reported as 7.13 µM.

With `CCCCn1c(=O)c2cc(F)c(NCc3ccc(O)cc3)cc2c2cc(C(O)(C(F)(F)F)C(F)(F)F)ccc21` [NR-55] the IC50 (SARS-CoV-2 (WK-521)) was 0.15 µM, the IC90 (SARS-CoV-2 (WK-521)) was 6.79 µM and the CC50 (in vitro [1]) was > 80 µM.

In the case of `CCCCn1c(=O)c2ccc(NCCCCO)cc2c2cc(C(O)(C(F)(F)F)C(F)(F)F)ccc21` [NR-99], the IC50 (SARS-CoV-2 (WK-521)) is reported as 1.3 µM, the IC90 (SARS-CoV-2 (WK-521)) is reported as > 10 µM and the CC50 (in vitro [1]) is reported as > 20 µM.

For `CCCn1c(=O)c2ccc(NCCO)cc2c2cc(C(O)(C(F)(F)F)C(F)(F)F)ccc21` [NR-92], the IC50 (SARS-CoV-2 (WK-521)) was 0.72 µM, the IC90 (SARS-CoV-2 (WK-521)) was 3.42 µM and the CC50 (in vitro [1]) was > 20 µM.

Compound `CCCCn1c(=O)c2ccc(NC(=O)C(C)N)c(F)c2c2cc(C(O)(C(F)(F)F)C(F)(F)F)ccc21` (centres unmarked) [NR-44] has an IC50 (SARS-CoV-2 (WK-521)) of 0.38 µM, an IC90 (SARS-CoV-2 (WK-521)) of 3.76 µM and a CC50 (in vitro [1]) of 10.3 µM.

In the case of `CCCCn1c(=O)c2ccc(NC(=O)CO)cc2c2cc(C(O)(C(F)(F)F)C(F)(F)F)ccc21` [NR-17], the IC50 (SARS-CoV-2 (WK-521)) is reported as 0.519 µM, the IC90 (SARS-CoV-2 (WK-521)) is reported as 3.35 µM and the CC50 (in vitro [1]) is reported as > 20 µM.

With `CCCCn1c(=O)c2cc(NC(=O)[C@@H]3C[C@@H](O)CN3)ccc2c2cc(C(O)(C(F)(F)F)C(F)(F)F)ccc21` [NR-52] the IC50 (SARS-CoV-2 (WK-521)) was 0.14 µM, the IC90 (SARS-CoV-2 (WK-521)) was 2.43 µM and the CC50 (in vitro [1]) was 18.1 µM.

Compound `CCCCn1c(=O)c2ccc(NC(=O)C(C)C)cc2c2cc(C(O)(C(F)(F)F)C(F)(F)F)ccc21` [NR-16] has an IC50 (SARS-CoV-2 (WK-521)) of 0.575 µM, an IC90 (SARS-CoV-2 (WK-521)) of 2.03 µM and a CC50 (in vitro [1]) of 15.8 µM.

For `CCCCn1c(=O)c2ccc(C(CCO)CCO)cc2c2cc(C(O)(C(F)(F)F)C(F)(F)F)ccc21` [NR-101], the IC50 (SARS-CoV-2 (WK-521)) was 0.54 µM, the IC90 (SARS-CoV-2 (WK-521)) was > 10 µM and the CC50 (in vitro [1]) was > 20 µM.

Work on `CCCCn1c(=O)c2ccc(NCCO)cc2c2cc(C(O)(C(F)(F)F)C(F)(F)F)ccc21` [NR-31] yielded an IC50 (SARS-CoV-2 (WK-521)) of 0.063 µM, an IC90 (SARS-CoV-2 (WK-521)) of 1.76 µM and an IC50 [2] of 0.74 µM. It also gave an IC90 [2] of 6.24 µM, an IC50 [3] of 2.15 µM and an IC90 [3] of 5.96 µM. The CC50 (in vitro [1]) was > 20 µM and the CC50 (in vitro [4]) was 17.6 µM.

In the case of `CCCCn1c(=O)c2cc(NC(=O)C(C)N)ccc2c2cc(C(O)(C(F)(F)F)C(F)(F)F)ccc21` (centres unmarked) [NR-50], the IC50 (SARS-CoV-2 (WK-521)) is reported as 0.65 µM, the IC90 (SARS-CoV-2 (WK-521)) is reported as 4.6 µM and the CC50 (in vitro [1]) is reported as 12 µM.

`CCCCn1c(=O)c2ccc(NC(CO)CO)cc2c2cc(C(O)(C(F)(F)F)C(F)(F)F)ccc21` [NR-89] gave an IC50 (SARS-CoV-2 (WK-521)) of 0.35 µM, an IC90 (SARS-CoV-2 (WK-521)) of 6.1 µM and an IC50 [2] of 4.74 µM. The IC90 [2] was 20.2 µM, the IC50 [3] was 6.77 µM and the IC90 [3] was 19 µM. For the same compound, the CC50 (in vitro [1]) was > 20 µM.

`CCCCn1c(=O)c2ccc(N)c(SC)c2c2cc(C(O)(C(F)(F)F)C(F)(F)F)ccc21` [NR-87] showed an IC50 (SARS-CoV-2 (WK-521)) of 0.85 µM, an IC90 (SARS-CoV-2 (WK-521)) of 4.9 µM and a CC50 (in vitro [1]) of 18.2 µM.

Work on `CCCCn1c(=O)c2cc(F)c(N)cc2c2cc(C(O)(C(F)(F)F)C(F)(F)F)ccc21` [NR-54] yielded an IC50 (SARS-CoV-2 (WK-521)) of 0.94 µM, an IC90 (SARS-CoV-2 (WK-521)) of 4.64 µM and a CC50 (in vitro [1]) of 27.2 µM.

With `CCCCn1c(=O)c2cc(F)c(NC3CCOC3)cc2c2cc(C(O)(C(F)(F)F)C(F)(F)F)ccc21` (centres unmarked) [NR-78] the IC50 (SARS-CoV-2 (WK-521)) was 0.65 µM, the IC90 (SARS-CoV-2 (WK-521)) was 3.59 µM and the CC50 (in vitro [1]) was 17.8 µM.

In the case of `CCCCn1c(=O)c2ccc(NCCCO)cc2c2cc(C(O)(C(F)(F)F)C(F)(F)F)ccc21` [NR-98], the IC50 (SARS-CoV-2 (WK-521)) is reported as 1.16 µM, the IC90 (SARS-CoV-2 (WK-521)) is reported as > 10 µM and the CC50 (in vitro [1]) is reported as > 20 µM.

In the case of `CCCCn1c(=O)c2ccc(NCC(O)CO)cc2c2cc(C(O)(C(F)(F)F)C(F)(F)F)ccc21` (centres unmarked) [NR-90], the IC50 (SARS-CoV-2 (WK-521)) is reported as 0.58 µM, the IC90 (SARS-CoV-2 (WK-521)) is reported as 3.87 µM and the IC50 [2] is reported as 2.4 µM. For the same compound, the IC90 [2] was 14.2 µM, the IC50 [3] was 3.84 µM and the IC90 [3] was 13.6 µM. The CC50 (in vitro [1]) was > 20 µM.

In the case of `CCCCn1c(=O)c2ccc(NCCC)cc2c2cc(C(O)(C(F)(F)F)C(F)(F)F)ccc21` [NR-103], the IC50 (SARS-CoV-2 (WK-521)) is reported as 2.35 µM, the IC90 (SARS-CoV-2 (WK-521)) is reported as > 10 µM and the CC50 (in vitro [1]) is reported as > 20 µM.

In the case of `CCCCn1c(=O)c2cc(F)c(NCCO)cc2c2cc(C(O)(C(F)(F)F)C(F)(F)F)ccc21` [NR-56], the IC50 (SARS-CoV-2 (WK-521)) is reported as 0.29 µM, the IC90 (SARS-CoV-2 (WK-521)) is reported as 8.07 µM and the CC50 (in vitro [1]) is reported as 29.5 µM.

For `CCCCn1c(=O)c2ccc(NCCN)cc2c2cc(C(O)(C(F)(F)F)C(F)(F)F)ccc21` [NR-102], the IC50 (SARS-CoV-2 (WK-521)) was 0.75 µM, the IC90 (SARS-CoV-2 (WK-521)) was 2.4 µM and the CC50 (in vitro [1]) was 5.5 µM.

For `CCCCn1c(=O)c2ccc(NCCCCCO)cc2c2cc(C(O)(C(F)(F)F)C(F)(F)F)ccc21` [NR-100], the IC50 (SARS-CoV-2 (WK-521)) was 0.59 µM, the IC90 (SARS-CoV-2 (WK-521)) was > 10 µM and the CC50 (in vitro [1]) was > 20 µM.

With `CCCCn1c(=O)c2ccc(NCCN(C)C)cc2c2cc(C(O)(C(F)(F)F)C(F)(F)F)ccc21` [NR-105] the IC50 (SARS-CoV-2 (WK-521)) was 1.48 µM, the IC90 (SARS-CoV-2 (WK-521)) was > 10 µM and the CC50 (in vitro [1]) was 7.4 µM.

In the case of `CCCCn1c(=O)c2ccc(NC(=O)CCO)cc2c2cc(C(O)(C(F)(F)F)C(F)(F)F)ccc21` [NR-38], the IC50 (SARS-CoV-2 (WK-521)) is reported as 0.058 µM, the IC90 (SARS-CoV-2 (WK-521)) is reported as > 20 µM and the CC50 (in vitro [1]) is reported as > 20 µM.

For `CCCCn1c(=O)c2cc(NC(=O)NCCO)ccc2c2cc(C(O)(C(F)(F)F)C(F)(F)F)ccc21` [NR-72], the IC50 (SARS-CoV-2 (WK-521)) was 0.62 µM, the IC90 (SARS-CoV-2 (WK-521)) was 2.29 µM and the CC50 (in vitro [1]) was 9 µM.
